Read-outs that look alike come from different tables or passages of the source.
Tested on: human P-glycoprotein HEK cells (HEK-P-gp)
Experiment: H3K27me3 immunocytochemistry assay in P-gp expressing HEK293T cells, with or without elacridar
Format: cell-based
Conditions: Homo sapiens, 4 days compound treatment
In short: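 HEK293T stably expressing human ABCB1 (vinblastine-selected), 1000 cells/well, treated with serially diluted compound for 4 days at 37° C, with or without 250 nM elacridar. Fixed cells stained with anti-H3K27me3 plus Alexa 488 secondary and Hoechst; imaged at 10×, nuclei identified by Hoechst.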

[1] = HEK293, 96 h, without elacridar, read-out: IC50, inhibitory activity on human P-glycoprotein HEK cells (HEK-P-gp)
[2] = HEK293, with 250 nM elacridar, read-out: IC50, inhibitory activity on human P-glycoprotein HEK cells (HEK-P-gp) pretreated with elacridar

`Cc1ncccc1-c1cc2c(n3cnnc13)NCc1cccc3c1[C@H](CO3)CO2` [Compound 1, (15R)-10-(2-methyl-3-pyridyl)-13,17-dioxa-3,5,7,8-tetrazapentacyclo[13.6.1.04,12.05,9.018,22] docosa-1(22),4(12),6,8,10,18,20-heptaene] showed an IC50 [1] of 100 to 500 nM and an IC50 [2] of under 25 nM.
For `CC(=O)N1CCC(c2cc3c(n4cnnc24)NCc2cccc4c2[C@@H](CO4)CO3)CC1` [Compound 3, (S)-1-(4-(7a,8,13,14-tetrahydro-7H-[1,2,4]triazolo[4′,3′:1,6]pyrido[3,2-b]benzofuro[4,3-fg][1,4]oxazonin-4-yl)piperidin-1-yl)ethan-1-one], the IC50 [1] was over 500 nM and the IC50 [2] was 100 to 500 nM.
`CC(=O)N1CCC(c2cc3c(n4cnnc24)NCc2c(F)cccc2CCO3)CC1` [Compound 4, 1-(4-(12-fluoro-7,8,13,14-tetrahydro-[1,2,4]triazolo[4′,3′:1,6]pyrido[3,2-b]benzo[f][1,4]oxazonin-4-yl)piperidin-1-yl)ethan-1-one] was tested, and the IC50 [1] was over 500 nM and the IC50 [2] was over 500 nM.
Work on `Cc1ncccc1-c1cc2c(n3cnnc13)NCc1c(F)cccc1CCO2` [Compound 5, 12-fluoro-4-(2-methylpyridin-3-yl)-7,8,13,14-tetrahydro-[1,2,4]triazolo[4′,3′:1,6]pyrido[3,2-b]benzo[f][1,4]oxazonine] yielded an IC50 [1] of over 500 nM and an IC50 [2] of over 500 nM.
In the case of `Cc1ncccc1-c1cc2c(n3cnnc13)NCc1c(F)cccc1COC2` [Compound 6, 12-fluoro-4-(2-methylpyridin-3-yl)-6,8,13,14-tetrahydro-[1,2,4]triazolo[4′,3′:1,6]pyrido[3,2-c]benzo[g][1,5]oxazonine], the IC50 [1] is reported as over 500 nM and the IC50 [2] is reported as over 500 nM.
For `Cn1cc(Cc2cc3c(n4cnnc24)NCc2cccc4c2[C@@H](CO4)CO3)cn1` [Compound 7, (S)-4-((1-methyl-1H-pyrazol-4-yl)methyl)-7a,8,13,14-tetrahydro-7H-[1,2,4]triazolo[4′,3′:1,6]pyrido[3,2-b]benzofuro[4,3-fg][1,4]oxazonine], the IC50 [1] was over 500 nM and the IC50 [2] was 100 to 500 nM.
In the case of `Cn1cc(Cc2cc3c(n4cnnc24)NCc2c(F)ccc4c2[C@@H](CO4)CO3)cn1` [Compound 10, (S)-12-fluoro-4-((1-methyl-1H-pyrazol-4-yl)methyl)-7a,8,13,14-tetrahydro-7H-[1,2,4]triazolo[4′,3′:1,6]pyrido[3,2-b]benzofuro[4,3-fg][1,4]oxazonine], the IC50 [1] is reported as over 500 nM and the IC50 [2] is reported as 100 to 500 nM.
Work on `c1cc2c3c(c1)OC[C@H]3COc1ccc3nncn3c1NC2` [Compound 11, (S)-7a,8,13,14-tetrahydro-7H-[1,2,4]triazolo[4′,3′:1,6]pyrido[3,2-b]benzofuro[4,3-fg][1,4]oxazonine] yielded an IC50 [1] of over 500 nM and an IC50 [2] of over 500 nM.
`Fc1ccc2c3c1CNc1c(cc(C4COC4)c4nncn14)OC[C@@H]3CO2` [Compound 12, (S)-12-fluoro-4-(oxetan-3-yl)-7a,8,13,14-tetrahydro-7H-[1,2,4]triazolo[4′,3′:1,6]pyrido[3,2-b]benzofuro[4,3-fg][1,4]oxazonine] showed an IC50 [1] of 50 to 100 nM and an IC50 [2] of 25 to 50 nM.
In the case of `Cc1ncc(-c2cc3c(n4cnnc24)NCc2c(F)ccc4c2[C@@H](CO4)CO3)c(C)n1` [Compound 13, (S)-4-(2,4-dimethylpyrimidin-5-yl)-12-fluoro-7a,8,13,14-tetrahydro-7H-[1,2,4]triazolo[4′,3′:1,6]pyrido[3,2-b]benzofuro[4,3-fg][1,4]oxazonine], the IC50 [1] is reported as 25 to 50 nM and the IC50 [2] is reported as under 25 nM.
`Cc1ncc(-c2cc3c(n4cnnc24)NCc2c(F)cccc2CCO3)c(C)n1` [Compound 14, 4-(2,4-dimethylpyrimidin-5-yl)-12-fluoro-7,8,13,14-tetrahydro-[1,2,4]triazolo[4′,3′:1,6]pyrido[3,2-b]benzo[f][1,4]oxazonine] showed an IC50 [1] of over 500 nM and an IC50 [2] of over 500 nM.
Compound `Cc1cn(-c2cc3c(n4cnnc24)NCc2c(F)ccc4c2[C@@H](CO4)CO3)cn1` [Compound 15, (S)-12-fluoro-4-(4-methyl-1H-imidazol-1-yl)-7a,8,13,14-tetrahydro-7H-[1,2,4]triazolo[4′,3′:1,6]pyrido[3,2-b]benzofuro[4,3-fg][1,4]oxazonine] has an IC50 [1] of 25 to 50 nM and an IC50 [2] of under 25 nM.
`COC(=O)N1CCC(c2cc3c(n4cnnc24)NCc2c(F)ccc4c2C(CO4)CO3)CC1` [Compound 16, methyl (S)-4-(12-fluoro-7a,8,13,14-tetrahydro-7H-[1,2,4]triazolo[4′,3′:1,6]pyrido[3,2-b]benzofuro[4,3-fg][1,4]oxazonin-4-yl)piperidine-1-carboxylate] was tested, and the IC50 [1] was 100 to 500 nM and the IC50 [2] was 50 to 100 nM.
For `Fc1cncnc1-c1cc2c(n3cnnc13)NCc1c(F)ccc3c1[C@@H](CO3)CO2` [Compound 164, (S)-12-fluoro-4-(5-fluoropyrimidin-4-yl)-7a,8,13,14-tetrahydro-7H-[1,2,4]triazolo[4′,3′:1,6]pyrido[3,2-b]benzofuro[4,3-fg][1,4]oxazonine], the IC50 [1] was under 25 nM and the IC50 [2] was under 25 nM.
`Fc1ccc2c3c1CNc1c(cc(Br)c4nncn14)OC[C@@H]3CO2` [Compound 165, (S)-4-bromo-12-fluoro-7a,8,13,14-tetrahydro-7H-[1,2,4]triazolo[4′,3′:1,6]pyrido[3,2-b]benzofuro[4,3-fg][1,4]oxazonine] gave an IC50 [1] of over 500 nM and an IC50 [2] of over 500 nM.
Work on `Cn1nc(OC(F)F)cc1-c1cc2c(n3cnnc13)NCc1c(F)ccc3c1[C@@H](CO3)CO2` [Compound 167, (S)-4-(3-(difluoromethoxy)-1-methyl-1H-pyrazol-5-yl)-12-fluoro-7a,8,13,14-tetrahydro-7H-[1,2,4]triazolo[4′,3′:1,6]pyrido[3,2-b]benzofuro[4,3-fg][1,4]oxazonine] yielded an IC50 [1] of under 25 nM and an IC50 [2] of under 25 nM.
In the case of `Cn1nc(F)cc1-c1cc2c(n3cnnc13)NCc1c(F)ccc3c1[C@@H](CO3)CO2` [Compound 168, (S)-12-fluoro-4-(3-fluoro-1-methyl-1H-pyrazol-5-yl)-7a,8,13,14-tetrahydro-7H-[1,2,4]triazolo[4′,3′:1,6]pyrido[3,2-b]benzofuro[4,3-fg][1,4]oxazonine], the IC50 [1] is reported as under 25 nM and the IC50 [2] is reported as under 25 nM.
Work on `Cn1nc(C(C)(C)C#N)cc1-c1cc2c(n3cnnc13)NCc1c(F)ccc3c1[C@@H](CO3)CO2` [Compound 169, (S)-2-(5-(12-fluoro-7a,8,13,14-tetrahydro-7H-[1,2,4]triazolo[4′,3′:1,6]pyrido[3,2-b]benzofuro[4,3-fg][1,4]oxazonin-4-yl)-1-methyl-1H-pyrazol-3-yl)-2-methylpropanenitrile] yielded an IC50 [1] of under 25 nM and an IC50 [2] of under 25 nM.
Compound `Cn1nccc1-c1cc2c(n3cc(C#N)nc13)NCc1c(F)ccc3c1[C@@H](CO3)CO2` [Compound 172, (S)-5-fluoro-12-(1-methyl-1H-pyrazol-5-yl)-6,7,15,15a-tetrahydro-1H-benzofuro[4,3-fg]imidazo[r,2′:1,6]pyrido[3,2-b][1,4]oxazonine-10-carbonitrile] has an IC50 [1] of 25 to 50 nM and an IC50 [2] of 25 to 50 nM.
With `Cn1nccc1-c1cc2c(n3cc(C(N)=O)nc13)NCc1c(F)ccc3c1[C@@H](CO3)CO2` [Compound 175, (S)-5-fluoro-12-(1-methyl-1H-pyrazol-5-yl)-6,7,15,15a-tetrahydro-1H-benzofuro[4,3-fg]imidazo[r,2′:1,6]pyrido[3,2-b][1,4]oxazonine-10-carboxamide] the IC50 [1] was over 500 nM and the IC50 [2] was 100 to 500 nM.
With `Cc1ncccc1-c1cc2c(n3cc(C(N)=O)nc13)NCc1c(F)ccc3c1[C@@H](CO3)CO2` [Compound 176, (S)-5-fluoro-12-(2-methylpyridin-3-yl)-6,7,15,15a-tetrahydro-1H-benzofuro[4,3-fg]imidazo[r,2′:1,6]pyrido[3,2-b][1,4]oxazonine-10-carboxamide] the IC50 [1] was over 500 nM and the IC50 [2] was over 500 nM.
For `Cc1ncccc1-c1cc2c(n3cc(C#N)nc13)NCc1c(F)ccc3c1[C@@H](CO3)CO2` [Compound 186, (S)-5-fluoro-12-(2-methylpyridin-3-yl)-6,7,15,15a-tetrahydro-1H-benzofuro[4,3-fg]imidazo[1′,2′:1,6]pyrido[3,2-b][1,4]oxazonine-10-carbonitrile], the IC50 [1] was 50 to 100 nM and the IC50 [2] was 25 to 50 nM.
For `Cc1ncoc1-c1cc2c(n3cnnc13)NCc1c(F)ccc3c1[C@@H](CO3)CO2` [Compound 189, (S)-12-fluoro-4-(4-methyloxazol-5-yl)-7a,8,13,14-tetrahydro-7H-[1,2,4]triazolo[4′,3′:1,6]pyrido[3,2-b]benzofuro[4,3-fg][1,4]oxazonine], the IC50 [1] was under 25 nM and the IC50 [2] was under 25 nM.
`Cn1nccc1-c1cc2c(n3cnnc13)NCc1c(F)ccc3c1C(CO3)CO2` (stereo not shown) [Example 17] showed an IC50 [1] of under 25 nM and an IC50 [2] of under 25 nM.
For `COc1ncc(-c2cc3c(n4cnnc24)NCc2c(F)ccc4c2[C@H](CO4)CO3)cn1` [Example 30], the IC50 [1] was 50 to 100 nM and the IC50 [2] was 25 to 50 nM.
With `CS(=O)(=O)c1ccc(-c2cc3c(n4cnnc24)NCc2c(F)ccc4c2C(CO4)CO3)cc1` (stereo not shown) [Example 36] the IC50 [1] was under 25 nM and the IC50 [2] was under 25 nM.
For `CN(CC(F)(F)F)C(=O)c1cc2c(n3cnnc13)NCc1c(F)ccc3c1C(CO3)CO2` (stereo not shown) [Example 38], the IC50 [1] was 50 to 100 nM and the IC50 [2] was 100 to 500 nM.
Compound `Cc1cc(C#N)ccc1-c1cc2c(n3cnnc13)NCc1c(F)ccc3c1[C@H](CO3)CO2` [Example 49] has an IC50 [1] of 25 to 50 nM and an IC50 [2] of under 25 nM.
`Cn1nc(C(F)(F)F)cc1-c1cc2c(n3cnnc13)NCc1c(F)ccc3c1[C@H](CO3)CO2` [Example 115] was tested, and the IC50 [1] was 25 to 50 nM and the IC50 [2] was under 25 nM.

Source: patent US20220160686A1, “MACROCYCLIC AZOLOPYRIDINE DERIVATIVES AS EED AND PRC2 MODULATORS” (Fulcrum Therapeutics, Inc., priority 2019, published 2022)
